Results from the NIST ThermoML archive (doi:10.1021/je060457+).

Legend:
[1] = 101 kPa, Liquid; for viscosity: Capillary tube (Ostwald / Ubbelohde) method; for mass density: Vibrating tube method
[2] = refractive index (Na D-line) (dimensionless); conditions: 101.33 kPa, Liquid, Standard Abbe refractometry
[3] = refractive index (Na D-line) (dimensionless); xn = mol fraction of the nth substance listed; conditions: 101 kPa, Liquid, Standard Abbe refractometry, x2 = 0
[4] = xn = mol fraction of the nth substance listed; conditions: 101 kPa, Liquid, x2 = 0; for viscosity: Capillary tube (Ostwald / Ubbelohde) method; for mass density: Vibrating tube method

CNCCO [2-(methylamino)ethanol]
Conditions | mass density, [1] [kg/m3] | refractive index, [2] | viscosity, [1] [mPa·s]
293.15 K | – | 1.4393 | –
298.15 K | 936.18 | 1.4375 | 10.51
303.15 K | 932.26 | 1.4356 | 8.522
308.15 K | – | 1.4339 | –
313.15 K | 924.42 | 1.4318 | 5.833
318.15 K | – | 1.4298 | –
323.15 K | 916.48 | 1.4278 | 4.177
333.15 K | 908.46 | – | 3.108
343.15 K | 900.3 | – | 2.385

O [water] + CNCCO
Conditions | mass density, [4] [kg/m3] | refractive index, [3] | viscosity, [4] [mPa·s]
293.15 K | – | 1.3331 | –
298.15 K | – | 1.3326 | 0.8824
303.15 K | – | 1.332 | 0.8047
308.15 K | – | 1.3314 | –
313.15 K | 992.26 | 1.3307 | 0.6596
318.15 K | – | 1.3299 | –
323.15 K | 988.05 | 1.3291 | 0.5507
333.15 K | 983.19 | – | 0.4703
343.15 K | 977.78 | – | 0.4074
